Reference: patent US7033789B1, “DNA molecules encoding L-glutamate-gated chloride channels from Schistocerca americana” (Merck & Co., Inc., priority 1999, dated 2006)

Key:
[1] = system: SaGluCl1 (short form “SC”) glutamate-gated chloride channel; experiment: Two microelectrode voltage clamp of Xenopus oocytes expressing SaGluCl1; assay type: cell-based, Schistocerca americana; conditions: for current elicited on application of the compound: Xenopus oocyte, SaGluCl1 short form SC, membrane potential held at 0 mV (FIG. 3); for activation of the channel (chloride current): short form of SaGluCl1 in Xenopus laevis oocytes
Excerpt: The measurement is made with the two microelectrode voltage clamp technique and the membrane potential was held at 0 mV. Two current recordings are superimposed. The bars at top show the duration of application of glutamate and ivermectin phosphate.
Full length cDNA clones corresponding to the selected RT-PCR sequences were used as template for synthesis of in vitro transcribed RNA (Ambion Inc.). The full-length cDNA encoding SaGluCl1 in a Bluescript plasmid is linearized and capped cRNA transcripts are synthesized using appropriate oligonucleotide primers and the mMESSAGE mMACHINE in vitro RNA transcription kit from Ambion. Xenopus laevis oocytes were prepared and injected using standard methods as described (Arena et al., 1991, Mol. Pharmacol. 40: 368–374; Arena et al, 1992, Mol. Brain Res. 15: 339–348). Adult female Xenopus laevis were anesthetized with 0.17% tricaine methanesulfonate and the ovaries were surgically removed and placed in a dish consisting of (mM): NaCl 82.5, KCl 2, MgCl2 1, CaCl2 1.8, HEPES 5, adjusted to pH 7.5 with NaOH(OR-2). Ovarian lobes were broken open, rinsed several times, and gently shaken in OR-2 containing 0.2% collagenase (Sigma, Type 1A) for 2–5 hours. When approximately 50% of the follicular layers were removed, Stage V and VI oocytes were selected and placed in media consisting of (mM): NaCl 86, KCl 2, MgCl2 1, CaCl2 1.8, HEPES 5, Na pyruvate 2.5, theophylline 0.5, gentamicin 0.1 adjusted to pH 7.5 with NaOH (ND-96) for 24–48 hours before injection. For most experiments, oocytes were injected with 10 ng of cRNA in 50 nl of RNase free water. Control oocytes were injected with 50 nl of water. Oocytes were incubated for 1–5 days in ND-96 supplemented with […] gentamycin, 2.5 mM Na pyruvate and 0.5 mM theophylline before recording. Incubations and collagenase digestion were carried out at 18° C.
Voltage-clamp studies were conducted with the two microelectrode voltage clamp technique using a Dagan CA1 amplifier (Dagan Instruments, Minneapolis, Minn.). The current passing microelectrodes were filled with 0.7 M KCl plus 1.7 M K3-citrate and the voltage recording microelectrodes were filled with 1.0 M KCl. The extracellular solution for most experiments was saline consisting of (mM): NaCl 96, BaCl2 3.5, MgCl2 0.5, CaCl2 0.1, HEPES 5, adjusted to pH 7.5 with NaOH. The extracellular chloride concentration was reduced in some experiments by equimolar replacement of NaCl with the sodium salt of the indicated anion. Experiments were conducted at 21–24° C. Data were acquired using the program Pulse and most analysis was performed with the companion program Pulsefit (Instrutech Instruments, Great Neck, N.Y.) or with Igor Pro (Wavemetrics, Lake Oswego, Oreg.). Data were filtered (fc, −3 db) at 1 kHz, unless otherwise indicated. […] The measurement was made as described in this Example with the two microelectrode voltage clamp technique and the membrane potential was held at 0 mV. Two current recordings are superimposed. The bars at top show the duration of application of glutamate and ivermectin phosphate.

[2] = system: SaGluCl1 (short form “SC”) expressed in CHO cells; experiment: Current measurement in CHO cells expressing SaGluCl1; assay type: cell-based, Schistocerca americana
Procedure: FIG. 4A and FIG. 4B show the SaGluCl1 (short form “SC”) expressed in CHO cells assembles into a homomultimer and is activated by ivermectin (FIG. 4A) and nodulasporic acid (FIG. 4B). 100 nM ivermectin and 1 μM nodulasporic acid were added at 20 seconds and current was measured.
PTet-Splice subclones of SaGluCl1 and SaGluCl2 as disclosed in Example section 1 were transfected into CHO Tet-Off cells (Clontech labs, Inc.) using the Lipofectamine Plus reagent (Life Technologies Inc.). Stable cell lines are selected by growth in the presence of G418. Single G418 resistant clones are isolated and shown to contain the intact SaGluCl gene. Clones containing the SaGluCl cDNAs may be analyzed for expression using immunological techniques, such as immuneprecipitation, Western blot, and immunofluorescence using antibodies specific to the SaGluCl proteins. Antibody may obtained from rabbits innoculated with peptides that are synthesized from the amino acid sequence predicted from the SaGluCl sequences. Expression is also analyzed using patch clamp electrophysiological techniques, an anion flux assay, and ^3H-ivermectin and ^3H-glutamate binding assays.
The expression of recombinant SaGluCl1 and/or SaGluCl2 is achieved by transfection of the full-length SaGluCl cDNA into a mammalian host cell described herein.

Row | Compound | current elicited on application of the compound [1] | activation of the channel (chloride current) [1] | activation of homomultimer channel, current measured ([2]; 1 μM added at 20 seconds (FIG. 4B)) | activation of homomultimer channel, current measured ([2]; 100 nM added at 20 seconds (FIG. 4A))
1 | N[C@@H](CCC(=O)O)C(=O)O [glutamate, L-glutamate] | elicited a rapidly desensitizing current | robust L-glutamate-gated chloride current | – | –
2 | nodulasporic acid | – | activated | activated | –
3 | CC[C@H](C)[C@H]1O[C@]2(CC[C@@H]1C)C[C@@H]1C[C@@H](C/C=C(\C)[C@@H](O[C@H]3C[C@H](OC)[C@@H](O[C@H]4C[C@H](OC)[C@@H](O)[C@H](C)O4)[C@H](C)O3)[C@@H](C)/C=C/C=C3\CO[C@@H]4[C@H](O)C(C)=C[C@@H](C(=O)O1)[C@]34O)O2 [ivermectin, 22,23-dihydro-avermectin B1a] | – | activated | – | activated
4 | ivermectin phosphate | elicited a current of similar amplitude, but the channel stayed open much longer | – | – | –
